Measured values reported in patent US20260347373A1, “HETEROCYCLIC COMPOUNDS, COMPOSITIONS THEREOF, AND METHODS OF TREATMENT THEREWITH” (BeOne Medicines I GmbH, priority 2023, published 2026).
pIC50: −log10 of the molar value. Where a name gives a salt, the structure may show the parent alone. Read-outs that look alike come from different tables or passages of the source.

Tests used:
KRAS G12D = KRAS G12D (Homo sapiens, UniProt P01116, G12D); assay: KRAS G12D Probe Displacement Assay (TR-FRET, GDP-loaded); assay type: binding
Sequence of KRAS G12D (P01116 1-188 isoform P01116-2 G12D): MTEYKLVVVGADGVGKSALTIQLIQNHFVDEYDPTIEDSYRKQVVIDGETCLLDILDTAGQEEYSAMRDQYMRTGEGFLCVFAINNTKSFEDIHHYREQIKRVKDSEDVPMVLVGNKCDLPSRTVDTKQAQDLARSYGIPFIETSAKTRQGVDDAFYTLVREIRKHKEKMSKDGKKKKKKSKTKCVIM
Text: (§1) The synthetic routes of probe 1 and 2, which have been disclosed in PCT/CN2022/070676, are hereby incorporated herein.

WT KRAS = WT KRAS (Homo sapiens, UniProt P01116); assay: KRAS WT Probe Displacement Assay (TR-FRET, GDP-loaded); assay type: binding
Sequence of WT KRAS (P01116 1-188 isoform P01116-2): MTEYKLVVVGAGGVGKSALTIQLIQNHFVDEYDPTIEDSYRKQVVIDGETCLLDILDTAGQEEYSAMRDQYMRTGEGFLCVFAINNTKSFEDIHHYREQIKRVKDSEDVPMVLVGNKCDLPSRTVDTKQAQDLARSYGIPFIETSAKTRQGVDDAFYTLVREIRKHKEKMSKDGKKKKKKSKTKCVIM
Text: as §1

[1] = KRAS G12D, read-out: KRAS^G12D Probe Displacement Assay IC50
[2] = KRAS WT, read-out: KRAS^WT Probe Displacement Assay IC50
[3] = KRAS^G12D Probe Displacement Assay IC50, KRAS G12D
[4] = KRAS^WT Probe Displacement Assay IC50, KRAS WT

Compound | pIC50 (KRAS G12D; [1]) | pIC50 (WT KRAS; [2]) | pIC50 (KRAS G12D; [3]) | pIC50 (WT KRAS; [4])
CO[C@H]1CN2C[C@H](F)C[C@]2(COc2nc3c4c(nc(-c5cc(N)cc(Cl)c5C(F)(F)F)c(F)c4n2)OCC[C@@H]2[C@@H]4CC[C@H](CN32)N4)C1 [Example 215, 3-chloro-5-((6aR,7S,10R)-1-fluoro-13-(((2R,6R,7aS)-2-fluoro-6-methoxytetrahydro-1H-pyrrolizin-7a(5H)-yl)methoxy)-5,6,6a,7,8,9,10,11-octahydro-4-oxa-3,11a,12,14,15-pentaaza-7,10-methanocyclohepta[4,5]cycloocta[1,2,3-de]naphthalen-2-yl)-4-(trifluoromethyl)aniline] | > 9.52 | 6.00 to 8.52 |  | 
Cc1cc(N)cc(-c2nc3c4c(nc(OCC5(CN6CCC(=C(F)F)CC6)CC5)nc4c2F)N2C[C@H]4CC[C@H](N4)[C@H]2CCO3)c1C(F)(F)F [Example 146, 3-((6aR,7S,10R)-13-((1-((4-(difluoromethylene)piperidin-1-yl)methyl)cyclopropyl)methoxy)-1-fluoro-5,6,6a,7,8,9,10,11-octahydro-4-oxa-3,11a,12,14,15-pentaaza-7,10-methano-cyclohepta[4,5]cycloocta [1,2,3-de]naphthalen-2-yl)-5-methyl-4-(trifluoromethyl) aniline] |  |  | > 9.52 | 8.52 to 9.52
CO[C@@H]1CCN(CC2(COc3nc4c5c(nc(-c6cc(N)cc(C)c6C(F)(F)F)c(F)c5n3)OCC[C@@H]3[C@@H]5CC[C@H](CN43)N5)CC2)C1 [Example 87, 3-((6aR,7S,10R)-1-fluoro-13-((1-(((R)-3-methoxypyrrolidin-1-yl)methyl)cyclopropyl)methoxy)-5,6,6a,7,8,9,10,11-octahydro-4-oxa-3,11a,12,14,15-pentaaza-7,10-methanocyclohepta [4,5]cycloocta [1,2,3-de]naphthalen-2-yl)-5-methyl-4-(trifluoromethyl)aniline] | > 9.52 | 6.00 to 8.52 |  | 
COC1(C)CN(CC2(COc3nc4c5c(nc(-c6cc(N)cc(C)c6C(F)(F)F)c(F)c5n3)OCC[C@@H]3[C@@H]5CC[C@H](CN43)N5)CC2)C1 [Example 84, 3-((6aR,7S,10R)-1-fluoro-13-((1-((3-methoxy-3-methylazetidin-1-yl)methyl)cyclopropyl)methoxy)-5,6,6a,7,8,9,10,11-octahydro-4-oxa-3,11a,12,14,15-pentaaza-7,10-methanocyclohepta [4,5]cycloocta [1,2,3-de]naphthalen-2-yl)-5-methyl-4-(trifluoromethyl)aniline] | > 9.52 | 6.00 to 8.52 |  | 
Cc1cc(N)cc(-c2nc3c4c(nc(OCC5(CN6CCCC6CO)CC5)nc4c2F)N2C[C@H]4CC[C@H](N4)[C@H]2CCO3)c1C(F)(F)F (single isomer, unassigned) [Example 124] | 8.52 to 9.52 | 6.00 to 8.52 |  | 
Cc1cc(N)cc(-c2nc3c4c(nc(OCC5(CN6C[C@@H](F)[C@@H](O)C6)CC5)nc4c2F)N2C[C@H]4CC[C@H](N4)[C@H]2CCO3)c1C(F)(F)F (stereo in doubt) [Example 95, cis-1-((1-((((6aR, 7S,10R)-2-(5-amino-3-methyl-2-(trifluoromethyl)phenyl)-1-fluoro-5,6,6a,7,8,9,10,11-octahydro-4-oxa-3,11a,12,14,15-pentaaza-7,10-methanocyclohepta [4,5]cycloocta[1,2,3-de]naphthalen-13-yl)oxy)methyl)cyclopropyl)methyl)-4-fluoropyrrolidin-3-ol formate] | > 9.52 | 6.00 to 8.52 |  | 
Cc1cc(N)cc(-c2nc3c4c(nc(OCC5(CN(C)C)CC5F)nc4c2F)N2C[C@H]4CC[C@H](N4)[C@H]2CCO3)c1C(F)(F)F (single isomer, unassigned) [Example 136] |  |  | > 9.52 | 6.00 to 8.52
Cc1cc(N)cc(-c2nc3c4c(nc(OCC5(CN6CCC7(C6)CC7(F)F)CC5)nc4c2F)N2C[C@H]4CC[C@H](N4)[C@H]2CCO3)c1C(F)(F)F (mixture of isomers) [Example 90, 3-((6aR,7S,10R)-13-((1-((1,1-difluoro-5-azaspiro [2.4]heptan-5-yl)methyl)cyclopropyl)methoxy)-1-fluoro-5,6,6a,7,8,9,10,11-octahydro-4-oxa-3, 11a,12,14,15-pentaaza[7,10]methanocyclohepta[4,5]cycloocta[1,2,3-de]naphthalen-2-yl)-5-methyl-4-(trifluoromethyl)aniline] | > 9.52 | 8.52 to 9.52 |  | 
CO[C@@H]1CN2C[C@H](F)C[C@]2(COc2nc3c4c(nc(-c5cc(N)cc(Cl)c5C(F)(F)F)c(F)c4n2)OCC[C@@H]2[C@@H]4CC[C@H](CN32)N4)C1 [Example 217, 3-chloro-5-((6aR,7S,10R)-1-fluoro-13-(((2R,6S,7aS)-2-fluoro-6-methoxytetahydro-1H-pyrrolizin-7a(5H)-yl)methoxy)-5,6,6a,7,8,9,10,11-octahydro-4-oxa-3,11a,12,14,15-pentaaza-7,10-methanocyclohepta[4,5]cycloocta[1,2,3-de]naphthalen-2-yl)-4-(trifluoromethyl)aniline] | > 9.52 | 6.00 to 8.52 |  | 
Cc1cc(N)cc(-c2nc3c4c(nc(OCC5(C)CN(C)CCN5C)nc4c2F)N2C[C@H]4CC[C@H](N4)[C@H]2CCO3)c1C(F)(F)F (single isomer, unassigned) [Example 4] | > 9.52 | 6.00 to 8.52 |  | 
Cc1cc(N)cc(-c2nc3c4c(nc(OCC5(CN6CCC6)CC5(F)F)nc4c2F)N2C[C@H]4CC[C@H](N4)[C@H]2CCO3)c1C(F)(F)F (stereo partly drawn) [Example 19, 3-((6aR,7S,10R)-13-((1-(azetidin-1-ylmethyl)-2,2-difluorocyclopropyl)methoxy)-1-fluoro-5,6,6a,7,8,9,10,11-octahydro-4-oxa-3,11a,12,14,15-pentaaza-7,10-methanocyclohepta[4,5]cycloocta[1,2,3-de]naphthalen-2-yl)-5-methyl-4-(trifluoromethyl)aniline] | > 9.52 | 6.00 to 8.52 |  | 
Cc1cc(N)cc(-c2nc3c4c(nc(OCC5(C)CC(F)CN(C6CCOCC6)C5)nc4c2F)N2C[C@H]4CC[C@H](N4)[C@H]2CCO3)c1C(F)(F)F (single isomer, unassigned) [Example 235] | 8.52 to 9.52 | 6.00 to 8.52 |  | 
Cc1cc(N)cc(-c2nc3c4c(nc(OCC5(F)COCC5N(C)C)nc4c2F)N2C[C@H]4CC[C@H](N4)[C@H]2CCO3)c1C(F)(F)F (stereo partly drawn) [Example 132, 4-((((6aR,7S,10R)-2-(5-amino-3-methyl-2-(trifluoromethyl)phenyl)-1-fluoro-5,6,6a,7,8,9,10,11-octahydro-4-oxa-3,11a,12,14,15-pentaaza-7,10-methanocyclohepta[4,5]cycloocta [1,2,3-de]naphthalen-13-yl)oxy)methyl)-4-fluoro-N,N-dimethyltetrahydrofuran-3-amine] | 8.52 to 9.52 | 6.00 to 8.52 |  | 
Cc1cc(N)cc(-c2nc3c4c(nc(OCC5(CN6C[C@H](O)[C@@H](F)C6)CC5)nc4c2F)N2C[C@H]4CC[C@H](N4)[C@H]2CCO3)c1C(F)(F)F (stereo in doubt) [Example 94, trans-1-((1-((((6aR, 7S,10R)-2-(5-amino-3-methyl-2-(trifluoromethyl)phenyl)-1-fluoro-5,6,6a,7,8,9,10,11-octahydro-4-oxa-3,11a,12,14,15-pentaaza-7,10-methanocyclohepta [4,5]cycloocta[1,2,3-de]naphthalen-13-yl)oxy)methyl)cyclopropyl)methyl)-4-fluoropyrrolidin-3-ol formate] | > 9.52 | 6.00 to 8.52 |  | 
Cc1cc(N)cc(-c2nc3c4c(nc(OCC5(C)CN(C)CCC5C(F)F)nc4c2F)N2C[C@H]4CC[C@H](N4)[C@H]2CCO3)c1C(F)(F)F (single isomer, unassigned) [Example 244] | 8.52 to 9.52 | 6.00 to 8.52 |  | 
Cc1cc(N)cc(-c2nc3c4c(nc(OCC5(CN6CCCC6)CC5)nc4c2F)N2C[C@H]4CC[C@H](N4)[C@H]2CCO3)c1C(F)(F)F [Example 77, 3-((6aR,7S,10R)-1-fluoro-13-((1-(pyrrolidin-1-ylmethyl)cyclopropyl)methoxy)-5,6,6a,7,8,9,10,11-octahydro-4-oxa-3,11a,12,14,15-pentaaza-7,10-methanocyclohepta[4,5]cycloocta[1,2,3-de]naphthalen-2-yl)-5-methyl-4-(trifluoromethyl)aniline] | > 9.52 | 6.00 to 8.52 |  | 
CN(C)C[C@@]1(COc2nc3c4c(nc(-c5cc(N)cc(Cl)c5C(F)(F)F)c(F)c4n2)OCC[C@@H]2[C@@H]4CC[C@H](CN32)N4)CC1(F)F [Example 45, 3-chloro-5-((6aR,7S,10R)-13-(((R)-1-((dimethylamino)methyl)-2,2-difluorocyclopropyl)methoxy)-1-fluoro-5,6,6a,7,8,9,10,11-octahydro-4-oxa-3,11a,12,14,15-pentaaza-7,10-methanocyclohepta[4,5]cycloocta[1,2,3-de]naphthalen-2-yl)-4-(trifluoromethyl)aniline] | > 9.52 | 8.52 to 9.52 |  | 
Cc1cc(N)cc(-c2nc3c4c(nc(OCC5(C6CCCN6C)CC5)nc4c2F)N2C[C@H]4CC[C@H](N4)[C@H]2CCO3)c1C(F)(F)F (single isomer, unassigned) [Example 133] | > 9.52 | 6.00 to 8.52 |  | 
Cc1cc(N)cc(-c2nc3c4c(nc(OCC5(CN6CCC(O)(C(F)(F)F)C6)CC5)nc4c2F)N2C[C@H]4CC[C@H](N4)[C@H]2CCO3)c1C(F)(F)F (mixture of isomers) [Example 92, 1-((1-((((6aR,7S, 10R)-2-(5-amino-3-methyl-2-(trifluoromethyl)phenyl)-1-fluoro-5,6,6a,7,8,9,10,11-octahydro-4-oxa-3,11a,12,14,15-pentaaza-7,10-methanocyclohepta [4,5]cycloocta[1,2,3-de]naphthalen-13-yl)oxy)methyl)cyclopropyl)methyl)-3-(trifluoromethyl) pyrrolidin-3-ol] | > 9.52 | 6.00 to 8.52 |  | 
